# Results as given in patent US20260042731A1, “(2,4-DICHLOROPHENOXY)ACETIC ACID ANALOGS” (CORTEVA AGRISCIENCE LLC, priority 2022, published 2026).
# Where two headings read alike, the source gives them in different places.
# What was measured:
# [1] = test system: glyphosate resistant Conyza canadensis (L.) (ERICA), horseweed; experiment: Postemergence herbicide evaluation, growth of Conyza canadensis (ERICA); assay type: in vivo; conditions: Erigeron canadensis, post-emergence, percent reduction in plant size vs untreated control, read-out: Ave. ERICA; for pest or weed control at 280 g/ha: 280 g ae/ha; for pest or weed control at 560 g/ha: 560 g ae/ha
# [2] = test system: weeds ABUTH, AMATA, AMBEL, CHEAL, ERICA; experiment: Postemergence herbicide evaluation, overall average % weed control across ABUTH, AMATA, AMBEL, CHEAL and ERICA; assay type: in vivo; conditions: post-emergence, average over five weeds, read-out: Overall Ave % Weed Control; for pest or weed control at 280 g/ha: 280 g ae/ha; for pest or weed control at 560 g/ha: 560 g ae/ha
# [3] = test system: Chenopodium album (CHEAL), common lambsquarters; experiment: Postemergence herbicide evaluation, growth of Chenopodium album (CHEAL); assay type: in vivo; conditions: Chenopodium album, post-emergence, percent reduction in plant size vs untreated control, read-out: Ave. CHEAL; for pest or weed control at 280 g/ha: 280 g ae/ha; for pest or weed control at 560 g/ha: 560 g ae/ha
# [4] = test system: Ambrosia artemisiifolia (AMBEL), common ragweed; experiment: Postemergence herbicide evaluation, growth of Ambrosia artemisiifolia (AMBEL); assay type: in vivo; conditions: Ambrosia artemisiifolia, post-emergence, percent reduction in plant size vs untreated control, read-out: AVE. AMBEL; for pest or weed control at 280 g/ha: 280 g ae/ha; for pest or weed control at 560 g/ha: 560 g ae/ha
# [5] = test system: Abutilon theophrasti (ABUTH), velvetleaf; experiment: Postemergence herbicide evaluation, growth of Abutilon theophrasti (ABUTH); assay type: in vivo; conditions: Abutilon theophrasti, post-emergence, percent reduction in plant size vs untreated control, read-out: AVE. ABUTH; for pest or weed control at 280 g/ha: 280 g ae/ha; for pest or weed control at 560 g/ha: 560 g ae/ha
# [6] = test system: Amaranthus rudis (AMATA), tall water hemp; experiment: Postemergence herbicide evaluation, growth of Amaranthus rudis (AMATA); assay type: in vivo; conditions: Amaranthus tuberculatus, post-emergence, percent reduction in plant size vs untreated control, read-out: Ave. AMATA; for pest or weed control at 280 g/ha: 280 g ae/ha; for pest or weed control at 560 g/ha: 560 g ae/ha
# [7] = Volatility of compounds measured by thermogravimetric analysis (TGA); assay type: physicochemical
# [8] = test system: Common Lambsquarters (CHEAL); experiment: Greenhouse post-emergence mixture trials, percent visual control; assay type: in vivo; conditions: CHEAL, 21 DAA
# [9] = test system: Velvetleaf (ABUTH); experiment: as above; assay type: in vivo; conditions: Abutilon theophrasti, post-emergence, 504 h, ABUTH, 21 DAA; for pest or weed control at 150 g/ha: Mesotrione 150 g ai or ae/ha alone
smiles,measurement,setting,value
Cc1nc2ccccc2n1C(=O)COc1ccc(Cl)cc1Cl [Compound D12],pest or weed control at 280 g/ha,"[1]; 168 h, 7 DAA",85%
same,pest or weed control at 560 g/ha,"[1]; 168 h, 7 DAA",85%
same,pest or weed control at 280 g/ha,"[1]; 336 h, 14 DAA",98.5%
same,pest or weed control at 560 g/ha,"[1]; 336 h, 14 DAA",99.5%
same,pest or weed control at 280 g/ha,"[1]; 504 h, 21 DAA",100%
same,pest or weed control at 560 g/ha,"[1]; 504 h, 21 DAA",100%
same,pest or weed control at 280 g/ha,"[2]; 168 h, 7 DAA",70%
same,pest or weed control at 560 g/ha,"[2]; 168 h, 7 DAA",75.5%
same,pest or weed control at 280 g/ha,"[2]; 336 h, 14 DAA",83.9%
same,pest or weed control at 560 g/ha,"[2]; 336 h, 14 DAA",90.6%
same,pest or weed control at 280 g/ha,"[2]; 504 h, 21 DAA",84.5%
same,pest or weed control at 560 g/ha,"[2]; 504 h, 21 DAA",94%
same,pest or weed control at 280 g/ha,"[3]; 168 h, 7 DAA",80%
same,pest or weed control at 560 g/ha,"[3]; 168 h, 7 DAA",75%
same,pest or weed control at 280 g/ha,"[3]; 336 h, 14 DAA",98.5%
same,pest or weed control at 560 g/ha,"[3]; 336 h, 14 DAA",98.5%
same,pest or weed control at 280 g/ha,"[3]; 504 h, 21 DAA",90%
same,pest or weed control at 560 g/ha,"[3]; 504 h, 21 DAA",96%
same,pest or weed control at 280 g/ha,"[4]; 168 h, 7 DAA",75%
same,pest or weed control at 560 g/ha,"[4]; 168 h, 7 DAA",72.5%
same,pest or weed control at 280 g/ha,"[4]; 336 h, 14 DAA",67.5%
same,pest or weed control at 560 g/ha,"[4]; 336 h, 14 DAA",77.5%
same,pest or weed control at 280 g/ha,"[4]; 504 h, 21 DAA",100%
same,pest or weed control at 560 g/ha,"[4]; 504 h, 21 DAA",100%
same,pest or weed control at 280 g/ha,"[5]; 168 h, 7 DAA",47.5%
same,pest or weed control at 560 g/ha,"[5]; 168 h, 7 DAA",67.5%
same,pest or weed control at 280 g/ha,"[5]; 336 h, 14 DAA",67.5%
same,pest or weed control at 560 g/ha,"[5]; 336 h, 14 DAA",85%
same,pest or weed control at 280 g/ha,"[5]; 504 h, 21 DAA",67.5%
same,pest or weed control at 560 g/ha,"[5]; 504 h, 21 DAA",96.5%
same,pest or weed control at 280 g/ha,"[6]; 168 h, 7 DAA",62.5%
same,pest or weed control at 560 g/ha,"[6]; 168 h, 7 DAA",77.5%
same,pest or weed control at 280 g/ha,"[6]; 336 h, 14 DAA",87.5%
same,pest or weed control at 560 g/ha,"[6]; 336 h, 14 DAA",92.5%
same,pest or weed control at 280 g/ha,"[6]; 504 h, 21 DAA",65%
same,pest or weed control at 560 g/ha,"[6]; 504 h, 21 DAA",77.5%
O=C(COc1ccc(Cl)cc1Cl)Oc1ccncn1 [Compound E8],"TGA Data (rate of weight loss, volatility)",[7],0.7322 µg/min
"O=C(COc1ccc(Cl)cc1Cl)OCOC(=O)COc1ccc(Cl)cc1Cl [Compound B15, Methylene bis(2-(2,4-dichlorophenoxy)acetate)]","TGA Data (rate of weight loss, volatility)",[7],0.3 µg/min
O=C(COc1ccc(Cl)cc1Cl)O/N=C/c1cccs1 [Compound A23],"TGA Data (rate of weight loss, volatility)",[7],0.3728 µg/min
"CS(=O)(=O)c1ccc(C(=O)C2C(=O)CCCC2=O)c([N+](=O)[O-])c1 [Mesotrione, 2-[4-(methylsulfonyl)-2-nitrobenzoyl]-1,3-cyclohexanedione, reference compound]",pest or weed control at 75 g/ha,"[8]; Chenopodium album, post-emergence, 504 h, Trial 2 Trt 25: B2 0 g ae/ha, Mesotrione 75 g ai or ae/ha alone",100%
same,pest or weed control at 150 g/ha,"[8]; Chenopodium album, post-emergence, 504 h, Trial 2 Trt 28: B2 0 g ae/ha, Mesotrione 150 g ai or ae/ha alone",100%
same,% Control,"[8]; Trial Bridge 1, mixing partner alone (D10 at 0 g ae/ha), Mesotrione 150 g ai or ae/ha",100%
same,pest or weed control at 75 g/ha,"[9]; Trial 2 Trt 25, B2 0 g ae/ha, Mesotrione 75 g ai or ae/ha alone",100%
same,pest or weed control at 150 g/ha,"[9]; Trial 2 Trt 28, B2 0 g ae/ha",100%
same,pest or weed control at 150 g/ha,"[9]; Trial Bridge 1 Trt 10, D10 0 g ae/ha",100%
O=C(COc1ccc(Cl)cc1Cl)Oc1ccncc1 [Compound E15],"TGA Data (rate of weight loss, volatility)",[7],0.03683 µg/min
O=C(COc1ccc(Cl)cc1Cl)ONC(=O)c1ccc(Cl)cc1 [Compound A28],"TGA Data (rate of weight loss, volatility)",[7],0.3455 µg/min
O=C(COc1ccc(Cl)cc1Cl)ONC(=O)c1cccnc1 [Compound A19],"TGA Data (rate of weight loss, volatility)",[7],0.348 µg/min
